Source: patent US20230167088A1, “1-PYRAZINYLPYRAZOLYL-3-OXYALKYL ACIDS AND THEIR DERIVATIVES, AND THEIR USE FOR CONTROL OF UNDESIRED PLANT GROWTH” (BAYER AKTIENGESELLSCHAFT, priority 2020, published 2023)

How the values were obtained:
SETVI [1] = assay: Herbicidal pre-emergence action 2a (greenhouse pots, visual scoring); assay type: in vivo, Setaria viridis; conditions: dosage 320 g/ha, visual scoring after about 3 weeks vs untreated controls
In short: (§1)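 Sow, cover with soil, spray soil surface (WP or EC in water, 0.5% additive, 600 l/ha; 320 and/or 80 g/ha), grow in greenhouse ~3 weeks, score visually in % against untreated controls.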

DIGSA [2] = assay: as above; assay type: in vivo, Digitaria sanguinalis; conditions: dosage 320 g/ha, visual scoring after about 3 weeks
Source text: (§2) [table] a) Seeds of monocotyledonous and dicotyledonous weed plants and crop plants are placed in plastic or organic plant pots and covered with soil. The compounds of the invention, formulated in the form of wettable powders (WP) or as emulsion concentrates (EC), are then applied onto the surface of the covering soil as aqueous suspension or emulsion with addition of 0.5% additive at a water application rate of 600 1/ha (converted). After the treatment, the pots are placed in a greenhouse and kept under good growth conditions for the trial plants. After about 3 weeks, the effect of the preparations is scored visually in comparison with untreated controls as percentages. For example, 100% activity=the plants have died, 0% activity=like control plants. Tables B1 to B15 below show the effects of selected compounds of the general formula (I) according to Tables 1 and 2 on various harmful plants and an application rate corresponding to 320 g/ha and/or 80 g/ha, which were obtained by the experimental procedure mentioned above.

ECHCG [3] = assay: as above; assay type: in vivo, Echinochloa crus-galli; conditions: dosage 320 g/ha, visual scoring after about 3 weeks
Source text: as §2

VIOTR [4] = assay: Herbicidal post-emergence action 1a (greenhouse pots, visual rating); assay type: in vivo, Viola tricolor; conditions: visual rating about 3 weeks after treatment
In short: (§3)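 Visual scoring versus untreated plants (100% = plants dead, 0% = as control) followed roughly 3 weeks in the greenhouse after treatment. Plants grown in sandy loam pots had been sprayed on green parts at the one-leaf stage, 2–3 weeks post-sowing, with aqueous WP/EC preparations containing 0.5% additive, 600 l/ha, at 320 and/or 80 g/ha.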

VERPE [5] = assay: Herbicidal pre-emergence action 2a (greenhouse pots, visual scoring); assay type: in vivo, Veronica persica; conditions: dosage 320 g/ha, visual scoring after about 3 weeks vs untreated controls
In short: as §1

ALOMY [6] = assay: Herbicidal post-emergence action 1a (greenhouse pots, visual rating); assay type: in vivo, Alopecurus myosuroides; conditions: rated visually about 3 weeks after treatment, 100% = plants have died, 0% = like control plants
In short: as §3

AVEFA [7] = assay: as above; assay type: in vivo, Avena fatua; conditions: rated visually about 3 weeks after treatment, 100% = plants have died, 0% = like control plants
In short: as §3

POLCO [8] = assay: Herbicidal pre-emergence action 2a (greenhouse pots, visual scoring); assay type: in vivo, Polygonum convolvulus; conditions: dosage 320 g/ha, visual scoring after about 3 weeks vs untreated controls
In short: as §1

LOLRI [9] = assay: as above; assay type: in vivo, Lolium rigidum; conditions: dosage 320 g/ha, visual scoring after about 3 weeks vs untreated controls
In short: as §1

LOLRI [10] = assay: Herbicidal post-emergence action 1a (greenhouse pots, visual rating); assay type: in vivo, Lolium rigidum; conditions: rated visually about 3 weeks after treatment, 100% = plants have died, 0% = like control plants
In short: as §3

VIOTR [11] = assay: Herbicidal pre-emergence action 2a (greenhouse pots, visual scoring); assay type: in vivo, Viola tricolor; conditions: dosage 320 g/ha, visual scoring after about 3 weeks vs untreated controls
In short: as §1

AVEFA [12] = assay: as above; assay type: in vivo, Avena fatua; conditions: dosage 320 g/ha, visual scoring after about 3 weeks
In short: as §1

VERPE [13] = assay: Herbicidal post-emergence action 1a (greenhouse pots, visual rating); assay type: in vivo, Veronica persica; conditions: visual rating about 3 weeks after treatment
In short: as §3

ABUTH = assay: as above; assay type: in vivo, Abutilon theophrasti; conditions: visual rating about 3 weeks after treatment
In short: as §3

AMARE [14] = assay: as above; assay type: in vivo, Amaranthus retroflexus; conditions: visual rating about 3 weeks after treatment
In short: as §3

DIGSA [15] = assay: as above; assay type: in vivo, Digitaria sanguinalis; conditions: rated visually about 3 weeks after treatment, 100% = plants have died, 0% = like control plants
Protocol: (§4) [table] a) Seeds of monocotyledonous and dicotyledonous weeds and crop plants are placed in sandy loam in plastic or organic plant pots, covered with soil and cultivated in a greenhouse under controlled growth conditions. 2 to 3 weeks after sowing, the test plants are treated at the one-leaf stage. The compounds of the invention, formulated in the form of wettable powders (WP) or as emulsion concentrates (EC), are then sprayed onto the green parts of the plants as aqueous suspension or emulsion with addition of 0.5% additive at a water application rate of 600 1/ha (converted). After the test plants have been kept in the greenhouse under optimum growth conditions for about 3 weeks, the activity of the preparations is rated visually in comparison to untreated controls. For example, 100% activity=the plants have died, 0% activity=like control plants. Tables A1 to A15 below show the effects of selected compounds of the general formula (I) according to Tables 1 and 2 on various harmful plants and an application rate corresponding to 320 g/ha and/or 80 g/ha, which were obtained by the experimental procedure mentioned above.

SETVI [16] = assay: as above; assay type: in vivo, Setaria viridis; conditions: rated visually about 3 weeks after treatment, 100% = plants have died, 0% = like control plants
In short: as §3

harmful plants [17] = assay: Herbicidal pre-emergence action 2a, summary across species; assay type: in vivo; conditions: Tables B1 to B15 (320 g/ha and/or 80 g/ha)
Source text: as §2, with “a)” for “[table] a)”, “plants.” for “plants. Tables B1 to B15 below show the effects of selected compounds of the general formula (I) according to Tables 1 and 2 on various harmful plants and an application rate corresponding to 320 g/ha and/or 80 g/ha, which were obtained by the experimental procedure mentioned above.”
Tables B1 to B15 below show the effects of selected compounds of the general formula (I) according to Tables 1 and 2 on various harmful plants and an application rate corresponding to 320 g/ha and/or 80 g/ha, which were obtained by the experimental procedure mentioned above.
For example, compound nos. I-07, I-08, I-11, I-12, I-13, I-16, I-17, I-20, I-36, I-37, I-39, I-45, I-46, I-48, I-52 and I-53 in the pre-emergence method have very good action (80% to 100% herbicidal activity) against harmful plants such as Alopecurus myosuroides, Amaranthus retroflexus, Digitaria sanguinalis, Lolium rigidum, Polygonum convolvulus, Setaria viridis, Veronica persica and Viola tricolor at an application rate of 0.32 kg of active substance per hectare.

ECHCG [18] = assay: Herbicidal post-emergence action 1a (greenhouse pots, visual rating); assay type: in vivo, Echinochloa crus-galli; conditions: Dosage 320 g/ha; rated visually about 3 weeks after treatment; 100% = plants have died, 0% = like control plants
Protocol: as §4

AMARE [19] = assay: Herbicidal pre-emergence action 2a (greenhouse pots, visual scoring); assay type: in vivo, Amaranthus retroflexus; conditions: dosage 320 g/ha, visual scoring after about 3 weeks vs untreated controls
In short: as §1

ALOMY [20] = assay: as above; assay type: in vivo, Alopecurus myosuroides; conditions: dosage 320 g/ha, visual scoring after about 3 weeks
In short: as §1

harmful plants [21] = assay: Herbicidal post-emergence action 1a, summary across species; assay type: in vivo; conditions: Tables A1 to A15 (320 g/ha and/or 80 g/ha)
Protocol: as §4, with “a)” for “[table] a)”, “plants.” for “plants. Tables A1 to A15 below show the effects of selected compounds of the general formula (I) according to Tables 1 and 2 on various harmful plants and an application rate corresponding to 320 g/ha and/or 80 g/ha, which were obtained by the experimental procedure mentioned above.”
Tables A1 to A15 below show the effects of selected compounds of the general formula (I) according to Tables 1 and 2 on various harmful plants and an application rate corresponding to 320 g/ha and/or 80 g/ha, which were obtained by the experimental procedure mentioned above.
For example, compound nos. I-05, I-07, I-08, I-10, I-12, I-16, I-17, I-22, I-36, I-37, I-39 and I-40 in the post-emergence method have very good action (80% to 100% herbicidal activity) against harmful plants such as Alopecurus myosuroides, Amaranthus retroflexus, Avena fatua, Lolium rigidum, Polygonum convolvulus, Setaria viridis, Veronica persica and Viola tricolor at an application rate of 0.32 kg of active substance per hectare.

POLCO [22] = assay: Herbicidal post-emergence action 1a (greenhouse pots, visual rating); assay type: in vivo, Polygonum convolvulus; conditions: dosage 320 g/ha, visual rating about 3 weeks after treatment
In short: as §3

PHBPU [23] = assay: Herbicidal pre-emergence action 2a (greenhouse pots, visual scoring); assay type: in vivo, Pharbitis purpurea; conditions: dosage 320 g/ha, visual scoring after about 3 weeks vs untreated controls
Source text: as §2

PHBPU [24] = assay: Herbicidal post-emergence action 1a (greenhouse pots, visual rating); assay type: in vivo, Pharbitis purpurea; conditions: visual rating about 3 weeks after treatment
In short: as §3

MATIN = assay: Herbicidal pre-emergence action 2a (greenhouse pots, visual scoring); assay type: in vivo, Matricaria inodora; conditions: dosage 320 g/ha, visual scoring after about 3 weeks vs untreated controls
In short: as §1

| SMILES | Pre-emergence action against SETVI in % (SETVI [1]) [%] | Pre-emergence action against ECHCG in % (ECHCG [3]) [%] | Pre-emergence action against VERPE in % (VERPE [5]) [%] | Post-emergence action against ALOMY in % (ALOMY [6]; Dosage 320 g/ha) [%] | Post-emergence action against AVEFA in % (AVEFA [7]; Dosage 80 g/ha) [%] | Post-emergence action against AVEFA in % (AVEFA [7]; Dosage 320 g/ha) [%] | Pre-emergence action against POLCO in % (POLCO [8]) [%] | Pre-emergence action against LOLRI in % (LOLRI [9]) [%] | Post-emergence action against LOLRI in % (LOLRI [10]; Dosage 320 g/ha) [%] | Pre-emergence action against AVEFA in % (AVEFA [12]) [%] | Post-emergence action against VERPE in % (VERPE [13]; dosage 320 g/ha) [%] | Post-emergence action against ABUTH in % (ABUTH; dosage 80 g/ha) [%] | Post-emergence action against ABUTH in % (ABUTH; dosage 320 g/ha) [%] | Post-emergence action against AMARE in % (AMARE [14]; dosage 80 g/ha) [%] | Post-emergence action against AMARE in % (AMARE [14]; dosage 320 g/ha) [%] | Post-emergence action against SETVI in % (SETVI [16]; Dosage 320 g/ha) [%] | Post-emergence action against ECHCG in % (ECHCG [18]) [%] | Pre-emergence action against AMARE in % (AMARE [19]) [%] | Pre-emergence action against ALOMY in % (ALOMY [20]) [%] | other results |
| --- | --- | --- | --- | --- | --- | --- | --- | --- | --- | --- | --- | --- | --- | --- | --- | --- | --- | --- | --- | --- |
| COC(=O)[C@@H](C)Oc1nn(-c2cnccn2)c(-c2ccc(F)nc2)c1Br [Example I-17] | 100 | 100 | 100 | 100 | 90 | 100 | 90 | 100 | 90 | 100 | 90 | 80 | 80 | 80 | 80 | 80 | 90 | 100 | 100 | Pre-emergence action against DIGSA in % (DIGSA [2]): 100%; Post-emergence action against VIOTR in % (VIOTR [4]; dosage 80 g/ha): 90%; Post-emergence action against VIOTR in % (VIOTR [4]; dosage 320 g/ha): 90%; Post-emergence action against ALOMY in % (ALOMY [6]; Dosage 80 g/ha): 100%; Post-emergence action against LOLRI in % (LOLRI [10]; Dosage 80 g/ha): 90%; Pre-emergence action against VIOTR in % (VIOTR [11]): 100%; Post-emergence action against DIGSA in % (DIGSA [15]; Dosage 80 g/ha): 80%; Post-emergence action against DIGSA in % (DIGSA [15]; Dosage 320 g/ha): 90%; herbicidal efficacy against harmful plants in the case of pre-emergence treatment (in words) (harmful plants [17]): good herbicidal efficacy; herbicidal efficacy against harmful plants in the case of post-emergence treatment (in words) (harmful plants [21]): good herbicidal efficacy; Post-emergence action against POLCO in % (POLCO [22]): 90% |
| O=C(O)COc1nn(-c2cnccn2)c(-c2cncc(F)c2)c1Br [Example I-93] | 100 | 100 | 100 | 100 | 100 | 100 | 100 | 100 | 90 | 100 | 80 | 80 | 80 | 90 | 90 | 90 | 90 | 100 | 90 | Pre-emergence action against PHBPU in % (PHBPU [23]): 100%; Post-emergence action against VERPE in % (VERPE [13]; dosage 80 g/ha): 80%; Post-emergence action against PHBPU in % (PHBPU [24]; dosage 80 g/ha): 90%; Post-emergence action against PHBPU in % (PHBPU [24]; dosage 320 g/ha): 90%; Pre-emergence action against MATIN in % (MATIN): 100%; Post-emergence action against SETVI in % (SETVI [16]; Dosage 80 g/ha): 90% |
